Structures can show the parent of a compound that is named as a salt.
system: SKOV-3 cancer cell lines; test: SKOV-3 cell viability after treatment with 10 μM test compound; type: cell-based; conditions: 10 micromolar test compound
Procedure: SKOV-3 cancer cell lines were treated with a test compound, either as a pure enantiomer or a mixture of stereoisomers, at a concentration of 10 μM. Cell viability was evaluated following treatment with a compound as disclosed in Table B. Viability of cancer cells following treatment is indicated according to the following legend:
A=0-25% viability B=26-50% viability C=>50% viability

| SMILES | % viability after treatment with 10 micromolar of test compound (SKOV-3 cells) |
| --- | --- |
| CN[C@@H](C)C(=O)N[C@H]1Cc2cc(OC)ccc2[C@H]2CC(C)(C)C(C(=O)N[C@@H]3CCCc4ccccc43)N2C1=O (stereo partly drawn) [Compound 34] | C (C=>50% viability) |

same assay, conditions: 10 micromolar test compound, dihydrochloride

| SMILES | % viability after treatment with 10 micromolar of test compound (SKOV-3 cells) |
| --- | --- |
| CN[C@@H](C)C(=O)N[C@H]1CCO[C@H]2CC(C)(C)[C@@H](CN[C@@H]3CCSc4ccccc43)N2C1=O [Compound 68, (S)—N-((4S,7S,9aS)-8,8-dimethyl-5-oxo-7-((((R)-thiochroman-4-yl)amino)methyl)octahydropyrrolo[2,1-b][1,3]oxazepin-4-yl)-2-(methylamino)propanamide dihydrochloride] | C (C=>50% viability) |

same assay, conditions: 10 micromolar test compound, hydrochloride

| SMILES | % viability after treatment with 10 micromolar of test compound (SKOV-3 cells) |
| --- | --- |
| CN[C@@H](C)C(=O)N[C@H]1CCO[C@H]2CC(C(C)C)(C(C)C)[C@@H](C(=O)NC(c3ccccc3)c3ccccc3)N2C1=O [Compound 61, (4S)—N-benzhydryl-8,8-diisopropyl-4-((S)-2-(methylamino)propanamido)-5-oxooctahydropyrrolo[2,1-b][1,3]oxazepine-7-carboxamide hydrochloride] | B (B=26-50% viability) |
| C=CCC1C[C@@H]2SCC[C@H](NC(=O)[C@H](C)NC)C(=O)N2[C@@H]1C(=O)N[C@@H]1CCCc2ccccc21 (stereo partly drawn) [Compound 30, (4S,9aS)-8,8-allyl-4-((S)-2-(methylamino)propanamido)-5-oxo-N—((R)-1,2,3,4-tetrahydronaphthalen-1-yl)octahydropyrrolo[2,1-b][1,3]thiazepine-7-carboxamide hydrochloride] | B (B=26-50% viability) |
| CN[C@@H](C)C(=O)N[C@H]1CCO[C@H]2CC(C(C)C)(C(C)C)[C@@H](C(=O)NC(c3ccccc3)c3ccccc3)N2C1=O [Compound 60, (4S)—N-benzhydryl-8,8-diisopropyl-4-((S)-2-(methylamino)propanamido)-5-oxooctahydropyrrolo[2,1-b][1,3]oxazepine-7-carboxamide hydrochloride] | A (A=0-25% viability) |
| C=CCC1(CC=C)C[C@@H]2SCC[C@H](NC(=O)[C@H](C)NC)C(=O)N2[C@@H]1C(=O)N[C@@H]1CCCc2ccccc21 [Compound 31, (4S,9aS)-8,8-diallyl-4-((S)-2-(methylamino)propanamido)-5-oxo-N—((R)-1,2,3,4-tetrahydronaphthalen-1-yl)octahydropyrrolo[2,1-b][1,3]thiazepine-7-carboxamide hydrochloride] | B (B=26-50% viability) |
| C=CCC1(CC=C)C[C@@H]2OCC[C@H](NC(=O)[C@H](C)NC)C(=O)N2[C@@H]1C(=O)NC(c1ccccc1)c1ccccc1 [Compound 52, (4S)-8,8-diallyl-N-benzhydryl-4-((S)-2-(methylamino)propanamido)-5-oxooctahydropyrrolo[2,1-b][1,3]oxazepine-7-carboxamide hydrochloride] | B (B=26-50% viability) |
| C=CCC1(CC=C)C[C@@H]2OCC[C@H](NC(=O)[C@H](C)NC)C(=O)N2[C@@H]1C(=O)NC(c1ccccc1)c1ccccc1 [Compound 50, (4S)-8,8-diallyl-N-benzhydryl-4-((S)-2-(methylamino)propanamido)-5-oxooctahydropyrrolo[2,1-b][1,3]oxazepine-7-carboxamide hydrochloride] | B (B=26-50% viability) |
| CCC1(CC)C[C@@H]2SCC[C@H](NC(=O)[C@H](C)NC)C(=O)N2[C@@H]1C(=O)N[C@@H]1CCCc2ccccc21 [Compound 39, (4S,9aS)-8,8-diethyl-4-((S)-2-(methylamino)propanamido)-5-oxo-N—((R)-1,2,3,4-tetrahydronaphthalen-1-yl)octahydropyrrolo[2,1-b][1,3]thiazepine-7-carboxamide hydrochloride] | B (B=26-50% viability) |
| CN[C@@H](C)C(=O)N[C@H]1CCO[C@H]2CC(CCc3ccccc3)(CCc3ccccc3)[C@@H](C(=O)N[C@@H]3CCCc4ccccc43)N2C1=O [Compound 26, (4S,9aS)-4-((S)-2-(methylamino)propanamido)-5-oxo-8,8-diphenethyl-N—((R)-1,2,3,4-tetrahydronaphthalen-1-yl)octahydropyrrolo[2,1-b][1,3]oxazepine-7-carboxamide hydrochloride] | C (C=>50% viability) |
| CN[C@@H](C)C(=O)N[C@H]1CCS[C@H]2CC(CCc3ccccc3)[C@@H](C(=O)N[C@@H]3CCCc4ccccc43)N2C1=O (stereo partly drawn) [Compound 46, (4S,9aS)-4-((S)-2-(methylamino)propanamido)-5-oxo-8,8-phenethyl-N—((R)-1,2,3,4-tetrahydronaphthalen-1-yl)octahydropyrrolo[2,1-b][1,3]thiazepine-7-carboxamide hydrochloride] | B (B=26-50% viability) |
| CCC1(CC)C[C@@H]2SCC[C@H](NC(=O)[C@H](C)NC)C(=O)N2[C@@H]1C(=O)N[C@@H]1CCCc2ccccc21 [Compound 35, (4S,9aS)-8,8-diethyl-4-((S)-2-(methylamino)propanamido)-5-oxo-N—((R)-1,2,3,4-tetrahydronaphthalen-1-yl)octahydropyrrolo[2,1-b][1,3]thiazepine-7-carboxamide hydrochloride] | A (A=0-25% viability) |

same assay, conditions: Homo sapiens, SK-OV-3, 10 micromolar test compound; SKOV-3 cells

| SMILES | viability at 10 µM [%] |
| --- | --- |
| C=CCC1(CC=C)C[C@@H]2SCC[C@H](NC(=O)[C@H](C)NC)C(=O)N2[C@H]1C(=O)N[C@@H]1CCCc2ccccc21 [Compound 28, (4S,9aS)-8,8-diallyl-4-((S)-2-(methylamino)propanamido)-5-oxo-N—((R)-1,2,3,4-tetrahydronaphthalen-1-yl)octahydropyrrolo[2,1-b][1,3]thiazepine-7-carboxamide hydrochloride] | 26 to 50 |
| CN[C@@H](C)C(=O)N[C@H]1CCS[C@H]2CC(C)(C)[C@@H](C(=O)N[C@H]3c4ccccc4C[C@H]3OCCF)N2C1=O [Compound 78, (4S,7S,9aS)—N-((1S,2R)-2-(2-fluoroethoxy)-2,3-dihydro-1H-inden-1-yl)-8,8-dimethyl-4-((S)-2-(methylamino)propanamido)-5-oxooctahydropyrrolo[2,1-b][1,3]thiazepine-7-carboxamide hydrochloride] | 0 to 25 |
| CCC1(CC)C[C@@H]2OCC[C@H](NC(=O)[C@H](C)NC)C(=O)N2[C@H]1C(=O)N[C@@H]1CCCc2ccccc21 [Compound 19, (4S)-8,8-diethyl-4-((S)-2-(methylamino)propanamido)-5-oxo-N—((R)-1,2,3,4-tetrahydronaphthalen-1-yl)octahydropyrrolo[2,1-b][1,3]oxazepine-7-carboxamide hydrochloride] | 26 to 50 |
| CN[C@@H](C)C(=O)N[C@H]1CCOC2c3ccncc3C(C(=O)N[C@@H]3CCCc4ccccc43)N2C1=O (stereo partly drawn) [Compound 4, (4S)-4-((S)-2-(methylamino)propanamido)-5-oxo-N—((R)-1,2,3,4-tetrahydronaphthalen-1-yl)-2,3,4,5,7,11b-hexahydropyrido[4′,3′:3,4]pyrrolo[2,1-b][1,3]oxazepine-7-carboxamide dihydrochloride] | > 50 |
| C#CCO[C@@H]1Cc2ccccc2[C@@H]1NC(=O)[C@H]1N2C(=O)[C@@H](NC(=O)[C@H](C)NC)CCS[C@H]2CC1(C)C [Compound 83, (2S)-1-{[(4S,7S,9aS)-8,8-Dimethyl-5-oxo-7-{[(1S,2R)-2-(prop-2-yn-1-yloxy)-2,3-dihydro-1H-inden-1-yl]carbamoyl}octahydropyrrolo[2,1-b][1,3]thiazepin-4-yl]amino}-N-methyl-1-oxopropan-2-ammonium chloride] | 0 to 25 |
| CN[C@@H](C)C(=O)N[C@H]1Cc2ccc(OC)cc2[C@H]2CC(C)(C)[C@H](C(=O)N[C@@H]3CCCc4ccccc43)N2C1=O [Compound 10, (6S,11bR)-10-methoxy-2,2-dimethyl-6-((S)-2-(methylamino)propanamido)-5-oxo-N—((R)-1,2,3,4-tetrahydronaphthalen-1-yl)-2,3,5,6,7,11b-hexahydro-1H-benzo[c]pyrrolo[1,2-a]azepine-3-carboxamide hydrochloride] | 26 to 50 |
| CN[C@@H](C)C(=O)N[C@H]1Cc2cc(OC)ccc2[C@H]2CC(C)(C)C(C(=O)NC(c3ccccc3)c3ccccc3)N2C1=O (stereo partly drawn) [Compound 5, (6S,11bR)—N-benzhydryl-9-methoxy-2,2-dimethyl-6-((S)-2-(methylamino)propanamido)-5-oxo-2,3,5,6,7,11b-hexahydro-1H-benzo[c]pyrrolo[1,2-a]azepine-3-carboxamide] | > 50 |
| CN[C@@H](C)C(=O)N[C@H]1CCO[C@H]2CC(C)(C)[C@@H](CN[C@@H]3CCOc4ccccc43)N2C1=O [Compound 73, (S)—N-((4S,7S,9aS)-7-((((R)-chroman-4-yl)amino)methyl)-8,8-dimethyl-5-oxooctahydropyrrolo[2,1-b][1,3]oxazepin-4-yl)-2-(methylamino)propanamide dihydrochloride] | 26 to 50 |
| CN[C@@H](C)C(=O)N[C@H]1Cc2c([nH]c3ccccc23)[C@H]2CC(C)(C)C(C(=O)N[C@@H]3CCCc4ccccc43)N2C1=O (stereo in doubt) [Compound 3, (3S, 6S,12bR)-2,2-dimethyl-6-((S)-2-(methylamino)propanamido)-5-oxo-N—((R)-1,2,3,4-tetrahydronaphthalen-1-yl)-1,2,3,5,6,7,12,12b-octahydropyrrolo[1′,2′:1,2]azepino[3,4-b]indole-3-carboxamide hydrochloride] | > 50 |
